Bridge positions count the residues as written; N and C are the ends. Square brackets hold non-standard residues; d marks the D form. Peptide text beside a SMILES is read from it. Hyp = O=C(O)[C@@H]1C[C@@H](O)CN1

Experimental findings from US12139520B2 (priority 2020, dated 2024) are described below.

A short description of this series: Physical stability of peptide analogues (Thioflavin T fibrillation). In kind it is physicochemical. The conditions noted are these: maximum ThT signal normalized between hAMY maximum and buffer background; 40° C., shaking, four days; pH 7 per table title. The protocol: General Protocols for Determination of Physical Stability of Peptide Analogues
Peptides were dissolved in buffers (50 mM sodium acetate at pH 4 or 50 mM sodium phosphate at pH 7) and incubated for one hour. The samples were then divided into two replicates of 80 μl in a black 384 well plate (μ-clear, Greiner Bio-One) and mixed with Thioflavin T (ThT) to a final concentration of 4 μM. The plate was sealed and placed in a plate reader (CLARIOstar, BMG) where the temperature was set at 40° C. during the course of the experiment. The samples were further stressed by shaking the plate at 700 rpm (linear) for five minutes before every measurement. The fluorescence was measured every 10 min for four days by exciting the ThT at 450 nm and measuring the emission at 480 nm. For each peptide, the ThT signal over time was smoothened using Local Polynomial Regression fitting (LOESS) as implemented in the statistical programming environment R. For the smoothened data, the maximum ThT signal was normalized in percent between the maximum ThT signal for hAMY and the buffer background.
In the case of `CC[C@H](C)[C@H](NC(=O)[C@H](CCC(N)=O)NC(=O)[C@H](Cc1c[nH]cn1)NC(=O)[C@H](C)NC(=O)[C@H](CC(C)C)NC(=O)[C@H](CCCCN)NC(=O)[C@H](CCC(N)=O)NC(=O)[C@@H](NC(=O)[C@@H](NC(=O)[C@@H]1CSSC[C@H](NC(=O)CN)C(=O)N[C@@H](CCCNC(=N)N)C(=O)N[C@@H](Cc2ccccc2)C(=O)NCC(=O)N[C@@H]([C@@H](C)O)C(=O)N1)[C@@H](C)O)C(C)C)C(=O)N[C@@H](Cc1ccc(O)cc1)C(=O)N[C@@H](CCC(N)=O)C(=O)N[C@@H](Cc1ccccc1)C(=O)N[C@H](C(=O)N[C@@H](CC(=O)O)C(=O)N[C@@H](CCCCN)C(=O)N[C@@H](CC(=O)O)C(=O)N[C@@H](CCCCN)C(=O)N[C@@H](CC(=O)O)C(=O)N[C@@H](CC(N)=O)C(=O)N[C@H](C(=O)N[C@@H](C)C(=O)N1CCC[C@H]1C(=O)N[C@@H](CCCNC(=N)N)C(=O)N[C@@H](CO)C(=O)N[C@@H](CCCCN)C(=O)N[C@H](C(=O)N[C@@H](CO)C(=O)N1CCC[C@H]1C(=O)N[C@@H](CCC(N)=O)C(=O)NCC(=O)N[C@@H](Cc1ccc(O)cc1)C(N)=O)[C@@H](C)CC)C(C)C)[C@@H](C)O` [compound 1], the “Max ThT signal (%)” value was 2.600%.
With `CC[C@H](C)[C@H](NC(=O)[C@H](CCC(N)=O)NC(=O)[C@H](Cc1c[nH]cn1)NC(=O)[C@H](C)NC(=O)[C@H](CC(C)C)NC(=O)[C@H](CCCNC(=N)N)NC(=O)[C@H](CCC(N)=O)NC(=O)[C@@H](NC(=O)[C@@H](NC(=O)[C@@H]1CSSC[C@H](NC(=O)[C@@H](N)CCCCN)C(=O)N[C@@H](CC(N)=O)C(=O)N[C@@H]([C@@H](C)O)C(=O)N[C@@H](C)C(=O)N[C@@H]([C@@H](C)O)C(=O)N1)[C@@H](C)O)C(C)C)C(=O)N[C@@H](Cc1ccc(O)cc1)C(=O)N[C@@H](CCC(N)=O)C(=O)N[C@@H](Cc1ccccc1)C(=O)N[C@H](C(=O)N[C@@H](CCCCN)C(=O)N[C@@H](CC(=O)O)C(=O)N[C@@H](CCCCN)C(=O)N[C@@H](CC(=O)O)C(=O)N[C@@H](CC(N)=O)C(=O)N[C@H](C(=O)N[C@@H](C)C(=O)N1CCC[C@H]1C(=O)N1CCC[C@H]1C(=O)N[C@H](C(=O)N[C@@H](CC(N)=O)C(=O)N[C@H](C(=O)NCC(=O)N[C@@H](CO)C(=O)N[C@@H](CC(N)=O)C(=O)NCC(=O)N1C[C@H](O)C[C@H]1C(N)=O)C(C)C)[C@@H](C)O)C(C)C)[C@@H](C)O` [compound 29] (H-KCNTATCTVQRLAHQIYQFTKDKDNVAPPTNVGSNG[Hyp]-NH2; disulfide 2-7; N-terminus assumed) the figure was 9.300%; with `CC[C@H](C)[C@H](NC(=O)[C@H](CCC(N)=O)NC(=O)[C@H](Cc1c[nH]cn1)NC(=O)[C@H](C)NC(=O)[C@H](CC(C)C)NC(=O)[C@H](CCCNC(=N)N)NC(=O)[C@H](CCC(N)=O)NC(=O)[C@@H](NC(=O)[C@@H](NC(=O)[C@@H]1CSSC[C@H](NC(=O)CN)C(=O)N[C@@H](CCCNC(=N)N)C(=O)N[C@@H]([C@@H](C)O)C(=O)NCC(=O)N[C@@H]([C@@H](C)O)C(=O)N1)[C@@H](C)O)C(C)C)C(=O)N[C@@H](Cc1ccc(O)cc1)C(=O)N[C@@H](CCC(N)=O)C(=O)N[C@@H](Cc1ccccc1)C(=O)N[C@H](C(=O)N[C@@H](CC(=O)O)C(=O)N[C@@H](CCCCN)C(=O)N[C@@H](CC(=O)O)C(=O)N[C@@H](CCCCN)C(=O)N[C@@H](CC(=O)O)C(=O)N[C@@H](CC(N)=O)C(=O)N[C@H](C(=O)N[C@@H](C)C(=O)N1CCC[C@H]1C(=O)N[C@@H](CCCNC(=N)N)C(=O)N[C@@H](CO)C(=O)N[C@@H](CC(N)=O)C(=O)N[C@H](C(=O)N[C@@H](CO)C(=O)N1CCC[C@H]1C(=O)N[C@@H](CC(N)=O)C(=O)NCC(=O)N[C@@H](Cc1ccc(O)cc1)C(N)=O)C(C)C)C(C)C)[C@@H](C)O` [compound 172] (H-GCRTGTCTVQRLAHQIYQFTDKDKDNVAPRSNVSPNGY-NH2; disulfide 2-7; N-terminus assumed), 13.900%.
With `CC[C@H](C)[C@H](NC(=O)[C@H](CCC(N)=O)NC(=O)[C@H](Cc1c[nH]cn1)NC(=O)[C@H](C)NC(=O)[C@H](CC(C)C)NC(=O)[C@H](CCCNC(=N)N)NC(=O)[C@H](CCC(N)=O)NC(=O)[C@@H](NC(=O)[C@@H](NC(=O)[C@@H]1CSSC[C@H](NC(=O)CN)C(=O)N[C@@H](CCCNC(=N)N)C(=O)N[C@@H](Cc2ccccc2)C(=O)NCC(=O)N[C@@H]([C@@H](C)O)C(=O)N1)[C@@H](C)O)C(C)C)C(=O)N[C@@H](Cc1ccc(O)cc1)C(=O)N[C@@H](CCC(N)=O)C(=O)N[C@@H](Cc1ccccc1)C(=O)N[C@H](C(=O)N[C@@H](CC(=O)O)C(=O)N[C@@H](CCCCN)C(=O)N[C@@H](CC(=O)O)C(=O)N[C@@H](CCCCN)C(=O)N[C@@H](CC(=O)O)C(=O)N[C@@H](CC(N)=O)C(=O)N[C@H](C(=O)N[C@@H](C)C(=O)N1CCC[C@H]1C(=O)N[C@@H](CCCNC(=N)N)C(=O)N[C@@H](CO)C(=O)N[C@@H](CCCCN)C(=O)N[C@H](C(=O)N[C@@H](CO)C(=O)N1CCC[C@H]1C(=O)N[C@@H](CC(N)=O)C(=O)NCC(=O)N1C[C@H](O)C[C@H]1C(N)=O)C(C)C)C(C)C)[C@@H](C)O` [compound 175] (H-GCRFGTCTVQRLAHQIYQFTDKDKDNVAPRSKVSPNG[Hyp]-NH2; disulfide 2-7), the “Max ThT signal (%)” value is 3.200%.
With `CC[C@H](C)[C@H](NC(=O)[C@H](CCC(N)=O)NC(=O)[C@H](Cc1c[nH]cn1)NC(=O)[C@H](C)NC(=O)[C@H](CC(C)C)NC(=O)[C@H](CCCNC(=N)N)NC(=O)[C@H](CCC(N)=O)NC(=O)[C@@H](NC(=O)[C@@H](NC(=O)[C@@H]1CSSC[C@H](NC(=O)CN)C(=O)N[C@@H](CCCNC(=N)N)C(=O)N[C@@H]([C@@H](C)O)C(=O)NCC(=O)N[C@@H]([C@@H](C)O)C(=O)N1)[C@@H](C)O)C(C)C)C(=O)N[C@@H](Cc1ccc(O)cc1)C(=O)N[C@@H](CCC(N)=O)C(=O)N[C@@H](Cc1ccccc1)C(=O)N[C@H](C(=O)N[C@@H](CC(=O)O)C(=O)N[C@@H](CCCCN)C(=O)N[C@@H](CC(=O)O)C(=O)N[C@@H](CCCCN)C(=O)N[C@@H](CC(=O)O)C(=O)N[C@@H](CC(N)=O)C(=O)N[C@H](C(=O)N[C@@H](C)C(=O)N1CCC[C@H]1C(=O)N[C@@H](CCCNC(=N)N)C(=O)N[C@@H](CO)C(=O)N[C@@H](CCCCN)C(=O)N[C@H](C(=O)NCC(=O)N1CCC[C@H]1C(=O)N[C@@H](CCC(N)=O)C(=O)NCC(=O)N1C[C@H](O)C[C@H]1C(N)=O)C(C)C)C(C)C)[C@@H](C)O` [compound 187] (H-GCRTGTCTVQRLAHQIYQFTDKDKDNVAPRSKVGPQG[Hyp]-NH2; disulfide 2-7; N-terminus assumed) the figure was 1.600%.
`CC[C@H](C)[C@H](NC(=O)[C@H](CCC(N)=O)NC(=O)[C@H](Cc1c[nH]cn1)NC(=O)[C@H](C)NC(=O)[C@H](CC(C)C)NC(=O)[C@H](CCCNC(=N)N)NC(=O)[C@H](CCC(N)=O)NC(=O)[C@@H](NC(=O)[C@@H](NC(=O)[C@@H]1CSSC[C@H](NC(=O)CN)C(=O)N[C@@H](CCCNC(=N)N)C(=O)N[C@@H]([C@@H](C)O)C(=O)NCC(=O)N[C@@H]([C@@H](C)O)C(=O)N1)[C@@H](C)O)C(C)C)C(=O)N[C@@H](Cc1ccc(O)cc1)C(=O)N[C@@H](CCC(N)=O)C(=O)N[C@@H](Cc1ccccc1)C(=O)N[C@H](C(=O)N[C@@H](CC(=O)O)C(=O)N[C@@H](CCCCN)C(=O)N[C@@H](CC(=O)O)C(=O)N[C@@H](CCCCN)C(=O)N[C@@H](CC(=O)O)C(=O)N[C@@H](CC(N)=O)C(=O)N[C@H](C(=O)N[C@@H](C)C(=O)N1CCC[C@H]1C(=O)N[C@@H](CCCNC(=N)N)C(=O)N[C@H](C(=O)N[C@@H](CCCCN)C(=O)N[C@H](C(=O)N[C@@H](CO)C(=O)N1CCC[C@H]1C(=O)N[C@@H](CCC(N)=O)C(=O)NCC(=O)N1C[C@H](O)C[C@H]1C(N)=O)[C@@H](C)CC)[C@@H](C)O)C(C)C)[C@@H](C)O` [compound 189] (H-GCRTGTCTVQRLAHQIYQFTDKDKDNVAPRTKISPQG[Hyp]-NH2; disulfide 2-7; N-terminus assumed): the “Max ThT signal (%)” value was 6.000%.
The same measure for `CC[C@H](C)[C@H](NC(=O)[C@H](CCC(N)=O)NC(=O)[C@H](Cc1c[nH]cn1)NC(=O)[C@H](C)NC(=O)[C@H](CC(C)C)NC(=O)[C@H](CCCNC(=N)N)NC(=O)[C@H](CCC(N)=O)NC(=O)[C@@H](NC(=O)[C@@H](NC(=O)[C@@H]1CSSC[C@H](NC(=O)CN)C(=O)N[C@@H](CCCNC(=N)N)C(=O)N[C@@H]([C@@H](C)O)C(=O)NCC(=O)N[C@@H]([C@@H](C)O)C(=O)N1)[C@@H](C)O)C(C)C)C(=O)N[C@@H](Cc1ccc(O)cc1)C(=O)N[C@@H](CCC(N)=O)C(=O)N[C@@H](Cc1ccccc1)C(=O)N[C@H](C(=O)N[C@@H](CC(=O)O)C(=O)N[C@@H](CCCCN)C(=O)N[C@@H](CC(=O)O)C(=O)N[C@@H](CCCCN)C(=O)N[C@@H](CC(=O)O)C(=O)N[C@@H](CC(N)=O)C(=O)N[C@H](C(=O)N[C@@H](C)C(=O)N1CCC[C@H]1C(=O)N[C@@H](CCCNC(=N)N)C(=O)N[C@H](C(=O)N[C@@H](CCCCN)C(=O)N[C@H](C(=O)N[C@@H](CO)C(=O)N1CCC[C@H]1C(=O)N[C@@H](CC(N)=O)C(=O)NCC(=O)N[C@@H](Cc1ccc(O)cc1)C(N)=O)[C@@H](C)CC)[C@@H](C)O)C(C)C)[C@@H](C)O` [compound 190] (H-GCRTGTCTVQRLAHQIYQFTDKDKDNVAPRTKISPNGY-NH2; disulfide 2-7): 12.900%.
